Assay results taken from patent publication US11897865B2, “ABHD12 inhibitors and methods of making and using same” (THE SCRIPPS RESEARCH INSTITUTE, priority 2018, dated 2024).

Legend:
[1] = target: T1, ABHD12 (Mus musculus, UniProt Q99LR1); experiment: Gel-based competitive ABPP, JJH350 probe vs brain membrane proteome; assay type: biochemical; details: read-out: IC50 (ABPP gel_JJH350 probe vs brain mem)
T1 construct: from tissue; host or cells: brain membrane proteome
T1 sequence (Q99LR1 1-398): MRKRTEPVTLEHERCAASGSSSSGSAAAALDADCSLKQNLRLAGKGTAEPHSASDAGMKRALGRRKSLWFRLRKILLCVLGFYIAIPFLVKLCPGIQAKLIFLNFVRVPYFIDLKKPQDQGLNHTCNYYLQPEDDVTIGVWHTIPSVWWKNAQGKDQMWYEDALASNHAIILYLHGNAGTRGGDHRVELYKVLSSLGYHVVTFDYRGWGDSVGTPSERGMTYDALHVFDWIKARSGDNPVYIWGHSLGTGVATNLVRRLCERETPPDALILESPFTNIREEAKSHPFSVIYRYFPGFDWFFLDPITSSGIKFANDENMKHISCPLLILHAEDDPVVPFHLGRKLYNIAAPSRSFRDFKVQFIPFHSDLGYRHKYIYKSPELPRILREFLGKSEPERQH
Summary of the method: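 Mouse membrane proteome (1 mg/mL) labeled 45 min at 37 °C with alkyne probe JJH350 (2 μM final) or FP-Rh (1 μM final). JJH350 targets were visualized after CuAAC with rhodamine-azide (1 h, room temperature), SDS-PAGE (10%) and in-gel fluorescence scanning, with band intensities quantified.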

[2] = target: T2, ABHD12 (Homo sapiens, UniProt Q8N2K0); experiment: Lyso-PS hydrolysis assay (substrate-based), ABHD12-overexpressing HEK293T membrane lysate; assay type: biochemical; details: 17:1 lyso-PS substrate; ABHD12-overexpressed HEK lysate; read-out: IC50 (Substrate-based assay_ABHD12-overexpressed HEK lysate)
T2 construct: expressed in transfected cells; host or cells: HEK293T
T2 sequence (Q8N2K0 1-398): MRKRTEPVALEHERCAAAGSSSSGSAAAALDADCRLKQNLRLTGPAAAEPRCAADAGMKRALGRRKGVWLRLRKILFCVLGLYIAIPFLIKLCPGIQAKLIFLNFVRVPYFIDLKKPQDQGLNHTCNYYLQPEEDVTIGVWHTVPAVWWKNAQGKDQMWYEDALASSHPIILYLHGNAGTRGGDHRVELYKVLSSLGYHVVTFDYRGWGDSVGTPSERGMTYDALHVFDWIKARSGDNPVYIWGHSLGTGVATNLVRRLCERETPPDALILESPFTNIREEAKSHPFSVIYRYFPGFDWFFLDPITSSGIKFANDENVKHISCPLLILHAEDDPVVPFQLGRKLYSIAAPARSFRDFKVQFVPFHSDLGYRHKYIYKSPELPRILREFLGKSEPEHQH
Method: Lyso-PS Hydrolysis Assay:
The lyso-PS lipase activity of ABHD12 was determined as previously described (Blankman, J. L., Long, J. Z., Trauger, S. A., Siuzdak, G. & Cravatt, B. F. ABHD12 controls brain lysophosphatidylserine pathways that are deregulated in a murine model of the neurodegenerative disease PHARC. Proc. Natl. Acad. Sci. U. S. A. 110, 1500-1505, doi:10.1073/pnas.1217121110 (2013)) with some minor modifications. The proteome concentrations were adjusted to 0.25 mg/mL (ABHD12-overexpressing HEK293T membrane) or 0.5 mg/mL (mouse brain membrane) in Dulbecco's phosphate-buffered saline (DPBS) (80 μL/reaction). 20 μL of 500 μM 17:1 lyso-PS in DPBS was added to each reaction (100 μM final concentration) and incubated at 37° C. After 30 min, the reaction was quenched with 400 μL of 2:1 CHCl3/MeOH (v/v) with 1 nmol 15:0 FFA as an internal standard. The mixture was vortexed and centrifuged at 1,400× g to separate the aqueous and organic phase. The organic phase was analyzed by LC-MS (1200 LC/MSD, Agilent Technologies). The separation of the analyte was achieved using a 50 mm×4.6 mm 5 μm Gemini C18 column (Phenomenex) coupled to a guard column (Gemini: C18: 4×3 mm). The LC solvents were as follows: buffer A, […] (95:5, v/v) with 0.1% NH4OH (v/v); and buffer B, iPrOH:MeOH:H2O (60:3 5:5, v/v/v) with 0.1% NH4OH (v/v). The LC method consisted of 0.1 mL/min 20% buffer B for 1.0 min, 0.4 ml/min isocratic mode of 100% buffer B over 7 min and equilibration with 0.5 mL/min 100% buffer A for 3 min. The MS analyses were performed using an electrospray ionization source (ESI) in negative ion mode to measure product formation. MS data were acquired in selected ion monitoring mode at m/z 267.20 for 17:1 FFA and m/z 241.20 for 15:0 FFA.

| Structure (SMILES) | IC50 [1] | IC50 [2] |
| --- | --- | --- |
| FC(F)(F)Oc1ccccc1Oc1ccnc(N2CCC(NC(=S)Nc3cccnc3)CC2)c1Cl [Example 67, 1-(1-(3-Chloro-4-(2-(trifluoromethoxy)phenoxy)pyridin-2-yl)piperidin-4-yl)-3-(pyridin-3-yl)thiourea] | ≤ 100 nM | 100 to 1000 nM |
| N#Cc1c(Oc2ccc(OC(F)(F)F)cc2)ccnc1N1CCC(NC(=S)Nc2cccnc2)CC1 [Example 71, 1-(1-(3-Cyano-4-(4-(trifluoromethoxy)phenoxy)pyridin-2-yl)piperidin-4-yl)-3-(pyridin-3-yl)thiourea] | 100 to 1000 nM | 100 to 1000 nM |
| COc1ccc(Oc2ccnc(N3CCC(NC(=S)Nc4cccnc4)CC3)c2)cc1 [Example 74, 1-(1-(4-(4-Methoxyphenoxy)pyridin-2-yl)piperidin-4-yl)-3-(pyridin-3-yl)thiourea] | 1000 to 25000 nM | 1000 to 25000 nM |

Next, values leading:

| IC50 [1] | IC50 [2] | Structure (SMILES) |
| --- | --- | --- |
| ≤ 100 nM | ≤ 100 nM | FC(F)(F)Oc1ccc(Oc2ccnc(N3CCC(NC(=S)Nc4cccnc4)CC3)c2Cl)cc1Cl [Example 65, 1-(1-(3-Chloro-4-(3-chloro-4-(trifluoromethoxy)phenoxy)pyridin-2-yl)piperidin-4-yl)-3-(pyridin-3-yl)thiourea] |
| ≤ 100 nM | 100 to 1000 nM | FC(F)(F)Oc1cccc(Oc2ccnc(N3CCC(NC(=S)Nc4cccnc4)CC3)c2Cl)c1 [Example 66, 1-(1-(3-Chloro-4-(3-(trifluoromethoxy)phenoxy)pyridin-2-yl)piperidin-4-yl)-3-(pyridin-3-yl)thiourea] |
| ≤ 100 nM | ≤ 100 nM | Cc1c(Oc2ccc(OC(F)(F)F)cc2)ccnc1N1CCC(NC(=S)Nc2cccnc2)CC1 [Example 72, 1-(1-(3-Methyl-4-(4-(trifluoromethoxy)phenoxy)pyridin-2-yl)piperidin-4-yl)-3-(pyridin-3-yl)thiourea] |
